Experimental data taken from patent US9238631B2, “Radiolabeled amino acids for diagnostic imaging” (PIRAMAL IMAGING SA, priority 2011, dated 2016).

Tests used:
A549 tumor = details: cited from earlier work
[1] = system: NCI-H460 (human NSCLC) cells; assay: Time-dependent uptake and blocking of [^18F]-41 in NCI-H460 cells; assay type: cell-based
Experimental: NCI-H460 (human NSCLC) cells, grown adherently in 48 well plates were used for these experiments. Approximately 100.000 cells were incubated in PBS-buffer containing 0.1% BSA with 0.25 MBq [^18F]-41 for up to 60 minutes. A time-dependent uptake was observed during the 60 min incubation period. Approximately 13% of applied dose was taken up by the cells during the 60 min incubation period (FIG. 6). For the blocking study [^18F]-41 was co-incubated with 1 mM 41 for 30 minutes. After this time, the cell bound radioactivity was determined.

reactive lymph nodes = assay: PET uptake in inflammatory lesions (streptozotocin-induced reactive lymph nodes); assay type: in vivo, mice; details: dynamic PET 1 h, 3 days after streptozotocin
Experimental: To test the specificity of compounds from the present invention, compound [^18F]-41 was examined in an animal model of reactive lymph nodes in comparison to the clinically commonly used PET tracer FDG. Therefore, female immunocompetent NMRI mice (10 weeks old) were injected with streptozotocin (500 μg/40 μL PBS) in the right hind limb to induce an inflammatory reaction in the right popliteal and additional lymph nodes. PET imaging studies were performed 3 days after Streptozotocin injection. PET images were acquired dynamically for 1 h after injection of approximately 5-10 MBq. After the imaging study, region-of-interest (ROI) analysis was performed in the popliteal, inguinal and iliacal lymph nodes. At least 3 animals were examined per tracer.

xCT (SLC7A11) = molecular target: T1, xCT (SLC7A11) (Homo sapiens, UniProt Q9UPY5); assay: Competition profile indicating uptake via xCT (SLC7A11); assay type: cell-based; details: co-incubation with 1 mM cold competitors, NCI-H460 cells
T1 construct: NCI-H460 tumor cells were co-incubated with the F-18 labeled tracer and several cold derivatives; endogenous in cells; host or cells: NCI-H460 tumor cells
T1 sequence (Q9UPY5 1-501): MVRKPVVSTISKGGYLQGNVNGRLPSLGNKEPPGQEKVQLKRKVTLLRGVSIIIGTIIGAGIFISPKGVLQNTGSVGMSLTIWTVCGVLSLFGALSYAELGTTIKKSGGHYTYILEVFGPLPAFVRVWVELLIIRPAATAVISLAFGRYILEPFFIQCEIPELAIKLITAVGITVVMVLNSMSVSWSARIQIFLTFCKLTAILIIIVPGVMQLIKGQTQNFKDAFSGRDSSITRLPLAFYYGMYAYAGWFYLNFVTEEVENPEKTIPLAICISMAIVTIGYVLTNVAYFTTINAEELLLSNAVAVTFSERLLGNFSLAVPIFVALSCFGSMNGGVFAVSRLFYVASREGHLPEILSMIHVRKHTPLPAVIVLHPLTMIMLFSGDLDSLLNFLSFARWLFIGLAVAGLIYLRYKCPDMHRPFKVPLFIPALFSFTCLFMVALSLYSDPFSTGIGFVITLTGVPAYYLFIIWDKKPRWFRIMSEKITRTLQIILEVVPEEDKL
T1 sequence (P08195 1-529 partner): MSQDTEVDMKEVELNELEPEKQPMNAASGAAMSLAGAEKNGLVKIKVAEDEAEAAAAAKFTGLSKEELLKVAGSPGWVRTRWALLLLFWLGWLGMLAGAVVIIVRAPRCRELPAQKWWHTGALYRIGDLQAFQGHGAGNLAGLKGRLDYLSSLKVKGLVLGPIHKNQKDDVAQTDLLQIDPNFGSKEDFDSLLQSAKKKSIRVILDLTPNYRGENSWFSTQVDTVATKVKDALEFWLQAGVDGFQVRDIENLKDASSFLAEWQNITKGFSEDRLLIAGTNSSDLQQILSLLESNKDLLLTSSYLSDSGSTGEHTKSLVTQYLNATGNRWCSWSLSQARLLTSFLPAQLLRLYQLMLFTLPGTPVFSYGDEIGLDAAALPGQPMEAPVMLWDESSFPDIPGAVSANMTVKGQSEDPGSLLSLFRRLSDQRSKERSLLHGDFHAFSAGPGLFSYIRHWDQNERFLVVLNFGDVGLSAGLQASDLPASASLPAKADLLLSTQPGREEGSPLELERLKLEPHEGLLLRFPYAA
Experimental: For determination of the responsible uptake mechanism, NCI-H460 tumor cells were co-incubated with the F-18 labeled tracer and several cold derivatives. These derivatives were used at a concentration of 1 mM, which is a large excess compared to the tracer. L-Glutamic acid, L-cystine, Carboxyphenylglycine (CPG) were used as competitors. In addition, also D-Glutamic acid, as well as L-aspartic acid and D-aspartic acid were used in this competition experiments. […] The same experiments were performed using [^18F]-1, [^18F]-4, [^18F]-9, [^18F]-8, [^18F]-25 and [^18F]-22.

NCI-H460 tumor [2] = assay: In vivo biodistribution in NCI-H460 tumor bearing mice; details: for T/Blood / T/Muscle: 1 h post injection
Experimental: (§1) To test the pharmacokinetic properties of compounds from the present invention, all F18-labeled compounds were examined by biodistribution studies in NCI-H460 tumor bearing mice. Female NMRI (nu/nu) mice were inoculated with 5×10^6 NCI-H460 tumor cells 8 to 10 days before the biodistribution studies. 185 kBq of activity of the fluorinated compound was injected and at least n=3 mice were used for every time point. After injection of the F18-labeled compound, mice were sacrificed at defined time-points. All organs were removed and radioactivity was determined using a γ-counter.
To compare the tumor uptake and retention of radioactivity of different ^18F-labeled derivatives from the present invention, biodistribution studies were performed in NCI-H460 tumor bearing NMRI (nu/nu) mice as described above.
To compare the kidney clearance of several ^18F-labeled derivatives from the present invention, biodistribution studies were performed in NCI-H460 tumor bearing female NMRI (nu/nu) mice as described above. […] After 2 h p.i., less than 1% ID/g can be found in the kidneys.
For comparison of pancreas uptake and clearance of several ^18F-labeled derivatives from the present invention, biodistribution studies were performed in NCI-H460 tumor bearing NMRI (nu/nu) mice as described above. […] After 2 h p.i., less than 2% ID/g can be found in the pancreas.
as §1, with “and” for “for every time point. After injection of the F18-labeled compound, mice were”, “time-points raning from 15 min pi up to 2 h p.i.” for “time-points.”, “γ-counter. […] High tumor uptake values of >3% ID/g were obtained with various compounds from the present invention.” for “γ-counter.”

NCI-H460 tumor [3] = assay: PET imaging in NCI-H460 tumor bearing nude-rats; assay type: in vivo; details: PET ROI analysis, 1 h p.i.
Experimental: c) Beside PET-imaging studies in mice, also the imaging properties of [^18F]-12 in rats were examined. NCI-H460 tumor cells were inoculated into the right flank of nude-rats (RH-Foxn1 nu/nu) 8 to 10 days before the PET study. PET images were acquired at 60 min after injection of approximately 10 MBq for 10 minutes. The H460 tumor was nicely visible (0.9% ID/g as determined by ROI analysis). Beside some minor uptake into the liver and kidneys due to the excretion of the compound, no uptake into other non-target tissues was observed.
To test the imaging properties, compounds from the present invention were evaluated in PET imaging studies using tumor bearing rats. NCI-H460 tumor cells were inoculated into the right flank of nude-rats (RH-Foxn1 nu/nu) 8 to 10 days before the PET study. PET images were acquired at 60 min after injection of approximately 10 MBq for 10 minutes. After the imaging study, region-of-interest (ROI) analysis was performed and activity in tumor, liver and kidney was determined. […] High tumor uptake values of >1% […] in this rat model were obtained with various compounds from the present invention. A favorable clearance profile of all compounds enables excellent tumor detection in PET imaging studies in tumor bearing rats.

[4] = system: NCI-H460 (human NSCLC) cells; assay: Cell uptake studies: 30 min uptake in H460 cells; assay type: cell-based; details: 0.25 MBq tracer, PBS 0.1% BSA
Experimental: For determination of the biological activity, the F18 labeled derivatives were used as tracers in cell uptake experiments. NCI-H460 (human NSCLC) cells, grown adherently in 48 well plates were used for these uptake-experiments. Approximately 100.000 cells were incubated with 0.25 MBq of the tracers for 30 min in PBS-buffer containing 0.1% BSA. After this time, the cell-bound radioactivity was determined using a γ-counter.

H460 cells = assay: Retention of radioactivity in H460 cells (efflux); assay type: cell-based, human; details: 30 minute efflux period after 30 minutes loading
Experimental: The retention of radioactivity in tumor cells was examined. Therefore. H460 cells were loaded with 0.25 MBq of the respective tracer for 30 minutes in PBS buffer, containing 0.1% BSA. After this uptake, the buffer was removed and the cells were washed with PBS. The cells were then reincubated with new PBS buffer, without radioactivity for up to 30 minutes. The release of activity into the supernatant as well as the retention of activity inside the cells was examined. It was discovered, that only a limited amount of activity was released into the supernatant during the 30 minute efflux period. More than 80% of the activity were retained inside the tumor cells during the 30 minute incubation under these efflux conditions.
In addition, the retention of radioactivity in tumor cells was examined. Therefore. H460 cells were loaded with 0.25 MBq of [^18F]-41 for 30 minutes in PBS buffer, containing 0.1% BSA. After this uptake, the buffer was removed and the cells were washed with PBS. The cells were then reincubated with new PBS buffer without radioactivity for 30 min. The release of activity into the supernatant as well as the retention of activity inside the cells was determined. It was discovered, that only a limited amount of activity was released into the supernatant during the 30 minute efflux period. […]

competition profile / uptake mechanism of the tracer (xCT (SLC7A11)) | Kidney (% ID/g at 1 h p.i.) (NCI-H460 tumor [2]) [% ID/g] | Liver (% ID/g at 1 h p.i.) (NCI-H460 tumor [2]) [% ID/g] | Pancreas (% ID/g at 1 h p.i.) (NCI-H460 tumor [2]) [% ID/g] | Tumor (% ID/g at 1 h p.i.) (NCI-H460 tumor [2]) [% ID/g] | Urine (% ID at 1 h p.i.) (NCI-H460 tumor [2]) [% ID] | T/Blood (NCI-H460 tumor [2]) | T/Muscle (NCI-H460 tumor [2]) | Kidney (% ID/g at 1 h p.i.) (NCI-H460 tumor [3]) [% ID/g] | Liver (% ID/g at 1 h p.i.) (NCI-H460 tumor [3]) [% ID/g] | Tumor (Max % ID/g at 1 h p.i.) (NCI-H460 tumor [3]) [% ID/g] | Tumor (Mean % ID/g at 1 h p.i.) (NCI-H460 tumor [3]) [% ID/g] | Structure (SMILES) | time-course of activity in the reactive lymph nodes (reactive lymph nodes) | 30 min uptake into H460 cells [%/100.000 cells] [4] [%/100.000 cells] | other results
– | – | – | – | – | – | – | – | – | – | – | – | N[C@@H](CC(CCC[18F])C(=O)O)C(=O)O (some centres unmarked) [4-(3-[^18F]fluoropropyl)glutamic acid] | – | – | Kidney uptake (A549 tumor; 30 min post injection): 6.4 % ID/g; pancreas uptake (A549 tumor; 30 min post injection): 8.5 % ID/g; tumor uptake (A549 tumor; 1 h post injection): 1.6 % ID/g
– | – | – | – | – | – | – | – | – | – | – | – | N[C@@H](CCC(Cc1ccc(OCF)cc1)C(=O)O)C(=O)O (stereo partly drawn) [Example 41, (2S)-2-amino-5-[4-(fluoromethoxy)benzyl]hexanedioic acid] | – | – | blocking of [^18F]-41 uptake ([1]; co-incubation with 1 mM 41, 30 minutes): strong competitor
– | – | – | – | – | – | – | – | – | – | – | – | OC[C@H]1OC(O)[C@H]([18F])[C@@H](O)[C@@H]1O (some centres unmarked) [FDG, 2-[^18F]fluorodeoxyglucose, reference compound] | remained almost constant | – | –
identical competition profile | 1.0 ± 0.3 | 1.5 ± 0.5 | 0.8 ± 0.1 | 2.8 ± 1.8 | 79.8 ± 2.2 | 14.5 | 38.8 | 1.2 | 1.1 | 1 | 0.7 | N[C@@H](CC(Cc1ccc(OCCC[18F])cc1)C(=O)O)C(=O)O (stereo partly drawn) [[^18F]-4, 4-[4-(3-[^18F]Fluoropropoxy)benzyl]-L-glutamic acid] | – | 10.0 ± 0.3 | –
identical competition profile | 1.8 ± 0.6 | 4.1 ± 0.8 | 0.63 ± 0.04 | 1.3 ± 0.5 | 64.9 ± 4.3 | 5.1 | 32.3 | 0.5 | 0.6 | 0.9 | 0.3 | N[C@@H](CC(Cc1ccc(O[C@H]2C[C@@H]([18F])C2)cc1)C(=O)O)C(=O)O (stereo partly drawn) [[^18F]-22, 4-{4-[(cis-3-[^18F]Fluorocyclobutyl)oxy]benzyl}-L-glutamic acid] | – | 4.2 ± 0.1 | –
– | 3.1 ± 0.4 | 0.3 ± 0.1 | 1.0 ± 0.5 | 6.8 ± 1.3 | 69.3 ± 14.5 | 26.3 | 90.6 | 0.5 | 0.4 | 3.7 | 1.6 | N[C@@H](CCC(Cc1ccc(OC[18F])cc1)C(=O)O)C(=O)O (stereo partly drawn) [[^18F]-41, (2S)-2-amino-5-[4-(fluoromethoxy)benzyl]hexanedioic acid] | wash-out of radioactivity | – | uptake of applied dose by the cells ([1]; 0.25 MBq, 60 min incubation, approx. 100.000 cells): Approximately 13 % of applied dose; activity retained inside the tumor cells (H460 cells): More than 80%; tumor uptake and retention (summary statement) (NCI-H460 tumor [2]; mouse, in vivo): high tumor uptake and retention; initial uptake in the inflammatory lesions (reactive lymph nodes): reduced compared to FDG
